What all share (type): in vivo, Beagle dogs
The subject of series [1] is total cholesterol in the blood. Put plainly: Blood total cholesterol levels in dogs after oral administration for 11 days (CEH-COD-POD method). The settings on record: relative ratio against averaged pre-dosing level (100), oral once daily, mean of 5 animals. The source says:
(§1) Atorvastatin was synthesized at Chemtech Labo.
(§2) Beagle dogs aged 5 months were purchased from Covance Research Products Inc. and used after 1 month of quarantine and acclimatisation breeding.
(§3) The required amounts of atorvastatin or each component of the combination drug calculated from the body weight of each dog were weighed and filled in a gelatin capsule (½ ounce) purchased from TORPAC Inc. Capsules filled with atorvastatin were stocked in a refrigerator and those filled with combination drugs stocked at room temperature until use.
(§4) Atorvastatin or combination drug capsules were forcibly orally administered to each of the test animals once daily between 9:00 and 12:30. Animals were fasted for 2 or 3 hr prior to administration of the capsules.
(§5) The administration period was 11 successive days.
(§6) Blood (10 mL) was collected from the superficial radial vein 2 or 1 weeks prior to administration and 4, 8, and 12 days after administration was started. Animals were fasted for approximately 18 hr prior to blood collection. Collected blood was placed in a test tube, left at room temperature for 0.5-1 hr, then centrifuged (3,000 rpm for 10 min). The obtained serum was used for assays of blood levels of total cholesterol, lipid peroxides and triglycerides according to CEH-COD-POD (Cholesterol ester hydrolase-Cholesteroloxidase-Peroxidase) methods, Yagi's methods and GK-GPO-POD (Glycerokinase-Glycerolphosphateoxidase-Peroxidase) methods respectively. (For assay method, see: Kanai's Manual of Clinical Laboratory Medicine; 31st Edition (September 1998), Kanehara & Co., Ltd.).
(§7) All these levels were determined using a fluorometer (Hitachi, Ltd., F3000), a full automatic analyzer (Monarch, Instrumentation Laboratory), and an automatic analyzer (7170, Hitachi, Ltd.).
(§8) All these values were converted to their relative ratios against their averaged pre-dosing levels (100) determined 2 and 1 weeks prior to drug administration. The averaged value in each group was obtained from 5 animals per group.

For another series, the system named is Blood FFA. Put plainly: Blood FFA levels in dogs after oral administration (Table 8). As to conditions: relative ratio against averaged pre-dosing level (100), oral once daily, atorvastatin 2 mg/kg, AA 500 mg/kg, mean of 5 animals.
The test system of a further series is GOT. Put plainly: GOT levels in dogs after oral administration (Table 9). As to conditions: relative ratio against averaged pre-dosing level (100), oral once daily, atorvastatin 2 mg/kg, pantethine 300 mg/kg, mean of 5 animals.
From the text: Atorvastatin was synthesized at Chemtech Labo. Inc., and riboflavin butyrate, d-α-tocopherol acetate, ascorbic acid, pantethine and taurine were purchased from Mitsubishi-Tokyo Pharmaceutical Inc., Eisai Co., Ltd., NIPPON ROCHE K.K., Nacalai Tesque, Inc. and Dai-ich Pharmaceutical Co., Ltd., respectively.
as §2, §3, §4, §5
Blood (10 mL) was collected from the superficial radial vein 2 or 1 weeks prior to administration and 4, 8, and 12 days after administration was started. Animals were fasted for approximately 18 hr prior to blood collection. Collected blood was placed in a test tube, left at room temperature for 0.5-1 hr, then centrifuged (3,000 rpm for 10 min). […]
as §7
Total cholesterol levels and so forth in the blood collected from dogs treated with either atorvastatin alone or a combination drug consisting of atorvastatin plus one of riboflavin butyrate, d-α-tocopherol acetate, ascorbic acid, pantethine and taurine were determined. All these values were converted to their relative ratios against their averaged pre-dosing levels (100) determined 2 and 1 weeks prior to drug administration. […]

The test system of series [2] is lipid peroxides in the blood. As to the kind of experiment: Blood lipid peroxide levels in dogs after oral administration for 11 days (Yagi's method). As to conditions: relative ratio against averaged pre-dosing level (100), oral once daily, atorvastatin 2 mg/kg, mean of 5 animals.
From the text: as §1, §2, §3, §4, §5
as §6, with “respectively.” for “respectively. (For assay method, see: Kanai's Manual of Clinical Laboratory Medicine; 31st Edition (September 1998), Kanehara & Co., Ltd.).”
as §8

Series [3] relates to triglycerides in the blood. As to the kind of experiment: Blood triglyceride levels in dogs after oral administration for 11 days (GK-GPO-POD method). The settings on record: relative ratio against averaged pre-dosing level (100), oral once daily, statin 2 mg/kg, taurine 1000 mg/kg, mean of 5 animals.
From the text: as §1, §2, §3, §4, §5, §6, §7, §8

The mark [4] stands for this setting: atorvastatin 2 mg/kg, RFVb 200 mg/kg.
Setting [5] is: atorvastatin 2 mg/kg, Tocoph 300 mg/kg.
Setting [6] is: statin 2 mg/kg, taurine 1000 mg/kg.

Turning to `CC(C)c1c(C(=O)Nc2ccccc2)c(-c2ccccc2)c(-c2ccc(F)cc2)n1CC[C@@H](O)C[C@@H](O)CC(=O)O` (relative stereo) [Atorvastatin alone, [R-(R*,R*)]-2-(4-fluorophenyl)-β,δ-dihydroxy-5-(1-methylethyl)-3-phenyl-4-[phenylamino]carbonyl]-1H-pyrrole-1-heptanoic acid], in series [1] (setting [4]), the “Blood Total Cholesterol Levels after administration, 4 days” value (“Blood Total Cholesterol Levels … 4 days” below) was 102.9; the “Blood Total Cholesterol Levels after administration, 8 days” value (“Blood Total Cholesterol Levels … 8 days” for short) was determined as 95.5; the “Blood Total Cholesterol Levels after administration, 12 days” value (from here on “Blood Total Cholesterol Levels … 12 days”) was 90.9. In series [1] (setting [5]), the “Blood Total Cholesterol Levels … 4 days” value was 102.9; the “Blood Total Cholesterol Levels … 8 days” value was found to be 95.5; the “Blood Total Cholesterol Levels … 12 days” value came out at 90.9. In the series with Blood FFA, the “Blood FFA Levels after administration, 4 days” value is recorded as 102.9; the “Blood FFA Levels after administration, 8 days” value is on record as 95.5; the “Blood FFA Levels after administration, 12 days” value is listed as 90.9. In the series with GOT (4 days), the “GOT Levels after administration, 4 days” value is given as 102.9. Moreover, the “GOT Levels after administration, 8 days” value with GOT (8 days) was determined as 95.5. For the same compound, in the series on GOT (12 days), the “GOT Levels after administration, 12 days” value came out at 90.9. In series [2] (Tocoph 300 mg/kg), the “Blood Lipid Peroxide Levels after administration, 4 days” value (shortened to “Blood Lipid Peroxide Levels … 4 days”) is reported as 104.5; the “Blood Lipid Peroxide Levels after administration, 8 days” value (from here on “Blood Lipid Peroxide Levels … 8 days”) is given as 84.4; the “Blood Lipid Peroxide Levels after administration, 12 days” value (“Blood Lipid Peroxide Levels … 12 days” for short) was 80.9. In addition, in series [2] (pantethine 300 mg/kg), the “Blood Lipid Peroxide Levels … 4 days” value is recorded as 104.5; the “Blood Lipid Peroxide Levels … 8 days” value is on record as 84.4; the “Blood Lipid Peroxide Levels … 12 days” value worked out at 80.9.

Take `O=C1O[C@H]([C@@H](O)CO)C(O)=C1O` [AA alone, ascorbic acid]: in the series with Blood FFA, the “Blood FFA Levels after administration, 4 days” value amounted to 95.9; the “Blood FFA Levels after administration, 8 days” value is recorded as 96.7; the “Blood FFA Levels after administration, 12 days” value worked out at 98.9.

For the compound `CCCC(=O)OC[C@@H](OC(=O)CCC)[C@@H](OC(=O)CCC)[C@H](Cn1c2nc(=O)[nH]c(=O)c-2nc2cc(C)c(C)cc21)OC(=O)CCC` [RFVb alone, riboflavin butyrate], in series [1] (setting [4]), the “Blood Total Cholesterol Levels … 4 days” value turned out to be 99.5; the “Blood Total Cholesterol Levels … 8 days” value stood at 99.0; the “Blood Total Cholesterol Levels … 12 days” value worked out at 97.2.

As for `CCC(C)(C)C(=O)O[C@H]1C[C@@H](C)C=C2C=C[C@H](C)[C@H](CC[C@@H]3C[C@@H](O)CC(=O)O3)[C@H]21` [Simvastatin alone], in series [1] (setting [6]), the “Blood Total Cholesterol Levels … 4 days” value is on record as 102.9; the “Blood Total Cholesterol Levels … 8 days” value turned out to be 95.5; the “Blood Total Cholesterol Levels … 12 days” value is 90.9. In addition, in series [3] (4 days), the “Blood Triglyceride Levels after administration, 4 days” value turned out to be 87.1. Also, the “Blood Triglyceride Levels after administration, 8 days” value in series [3] (8 days) is listed as 86.7. Further, in series [3] (12 days), the “Blood Triglyceride Levels after administration, 12 days” value worked out at 74.1.

`CC(=O)Oc1c(C)c(C)c2c(c1C)CC[C@@](C)(CCC[C@H](C)CCC[C@H](C)CCCC(C)C)O2` [Tocoph alone, d-α-tocopherol acetate]: in series [1] (setting [5]), the “Blood Total Cholesterol Levels … 4 days” value is on record as 97.7; the “Blood Total Cholesterol Levels … 8 days” value was 95.1; the “Blood Total Cholesterol Levels … 12 days” value is listed as 97.5. In series [2] (Tocoph 300 mg/kg), the “Blood Lipid Peroxide Levels … 4 days” value turned out to be 106.3; the “Blood Lipid Peroxide Levels … 8 days” value was found to be 119.0; the “Blood Lipid Peroxide Levels … 12 days” value worked out at 75.9.

The values are drawn from patent US20040023919A1, “Blood lipid ameliorant composition” (SANKYO COMPANY, LIMITED, priority 2000, published 2004).
